Laboratory results from ChEMBL document CHEMBL1201862, “PubChem BioAssay data set” (2004).
Values joined by “and” are separate entries in the source; they are usually repeats but may differ in a detail not shown here. Equal entries are not always repeated.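 Five concentrations, 48 hours, 96-well plates. GI50: concentration for 50% inhibition of growth.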 Active and inactive are the calls of the source. Cut-off read from the data, not from the text of the source: active = GI50 up to about 1.1 µM and inactive = higher.

Experiments:
Test in all cases: inhibition of tumour cell growth, NCI panel, 48 h
SNB-19 = system: SNB-19
EKVX = system: EKVX
ACHN = system: ACHN
MDA-MB-231 = system: MDA-MB-231
NCI-H23 = system: NCI-H23
HCC 2998 = system: HCC 2998
LOX IMVI = system: LOX IMVI
A498 = system: A498
CAKI-1 = system: CAKI-1
SF-539 = system: SF-539
SK-MEL-5 = system: SK-MEL-5
HOP-62 = system: HOP-62
HCT-15 = system: HCT-15
DU-145 = system: DU-145
Hs-578T = system: Hs-578T
TK-10 = system: TK-10
PC-3 = system: PC-3
MCF7 = system: MCF7
MOLT-4 = system: MOLT-4
SF-268 = system: SF-268
UACC-62 = system: UACC-62
786-0 = system: 786-0
SNB-75 = system: SNB-75
NCI/ADR-RES = system: NCI/ADR-RES
RXF 393 = system: RXF 393
OVCAR-8 = system: OVCAR-8
OVCAR-4 = system: OVCAR-4
CCRF-CEM = system: CCRF-CEM
HT-29 = system: HT-29
SK-MEL-2 = system: SK-MEL-2
MDA-MB-435 = system: MDA-MB-435
HOP-92 = system: HOP-92
IGROV-1 = system: IGROV-1
M14 = system: M14
KM12 = system: KM12
HL-60 = system: HL-60
UACC-257 = system: UACC-257
HCT-116 = system: HCT-116
U-251 = system: U-251
UO-31 = system: UO-31
OVCAR-3 = system: OVCAR-3
SN12C = system: SN12C
RPMI-8226 = system: RPMI-8226
Malme-3M = system: Malme-3M
NCI-H522 = system: NCI-H522
SF-295 = system: SF-295
K562 = system: K562
A549 = system: A549
SK-MEL-28 = system: SK-MEL-28
COLO 205 = system: COLO 205
NCI-H460 = system: NCI-H460
OVCAR-5 = system: OVCAR-5
SK-OV-3 = system: SK-OV-3

Measured: GI50

CC1OC(OC2C(OC(=O)[C@]34CCC(C)(C)C[C@H]3C3=CC[C@@H]5[C@@]6(C)CC[C@H](OC7OC(C(=O)O)C(O)C(OC8OCC(O)C(O)C8O)C7O)C(C)(C)[C@@H]6CC[C@@]5(C)[C@]3(C)CC4)OCC(O)C2O)C(O)C(OC2OCC(O)C(O)C2O)C1OC1OCC(O)C(OC2OCC(O)C(O)C2O)C1O (some centres undefined)
inactive: SNB-19 9.86 µM and 14.2 µM | EKVX 17.4 µM and 9.31 µM | ACHN 7.28 µM and 12.3 µM | MDA-MB-231 3.3 µM and 3.16 µM | NCI-H23 7.06 µM and 13.9 µM | HCC 2998 2 µM and 3.89 µM | LOX IMVI 10.8 µM and 13.4 µM | A498 2.66 µM and 2.28 µM | CAKI-1 5.93 µM and 10.7 µM | SF-539 20.5 µM | SK-MEL-5 14.5 µM and 18.4 µM | HOP-62 14.9 µM and 16.9 µM | DU-145 15 µM and 28.2 µM | Hs-578T 26.6 µM and 18.4 µM | TK-10 11.2 µM | PC-3 9.68 µM and 11.1 µM | MCF7 7.93 µM and 5.35 µM | MOLT-4 9.91 µM and 17.9 µM | SF-268 16.7 µM and 8.51 µM | UACC-62 16.4 µM and 28.8 µM | 786-0 12.1 µM and 21.7 µM | SNB-75 12.2 µM and 14.1 µM | NCI/ADR-RES 7.55 µM and 14.4 µM | RXF 393 15 µM and 18.2 µM | OVCAR-8 13.2 µM and 17.5 µM | OVCAR-4 7.96 µM and 14.3 µM | CCRF-CEM 14.6 µM and 13.2 µM
18.6 µM and 15.3 µM: HCT-15

COC1=CC(c2ccc(Br)[nH]2)=N/C1=C/NCC(C)C
1.3 µM: HCT-15
inactive: SNB-19 3.6 µM | HT-29 1.24 µM | ACHN 1.21 µM | SK-MEL-2 1.5 µM | MDA-MB-435 1.93 µM | HOP-92 1.32 µM | MDA-MB-231 2.02 µM | NCI-H23 1.58 µM | HCC 2998 1.34 µM | A498 2.23 µM | CAKI-1 2.36 µM | IGROV-1 2.37 µM | M14 1.98 µM | SF-539 2.06 µM | KM12 1.26 µM | HL-60 1.39 µM | SK-MEL-5 1.53 µM | HOP-62 1.47 µM | UACC-257 2.07 µM | HCT-116 1.44 µM | U-251 1.51 µM | Hs-578T 2.29 µM | UO-31 2.06 µM | TK-10 2.55 µM | OVCAR-3 1.62 µM | SN12C 2.21 µM | PC-3 1.47 µM | Malme-3M 1.75 µM | NCI-H522 1.49 µM | SF-295 1.6 µM | K562 2.65 µM | MOLT-4 1.33 µM | SF-268 2.26 µM | A549 1.46 µM | UACC-62 1.98 µM | 786-0 1.55 µM | SK-MEL-28 2.75 µM | SNB-75 5.18 µM | COLO 205 1.24 µM | OVCAR-8 2.01 µM | OVCAR-4 1.86 µM | NCI-H460 1.62 µM | OVCAR-5 2.11 µM | SK-OV-3 2.53 µM
active: EKVX 368 nM | DU-145 475 nM | RPMI-8226 0.412 µM | MCF7 1.09 µM | CCRF-CEM 581 nM

CN(C)CC1CCCCCCCCCCC1=O (centres undefined)
inactive: MDA-MB-231 > 10 µM | HCC 2998 > 10 µM | UACC-257 > 10 µM | SF-295 > 10 µM | RXF 393 > 10 µM | OVCAR-8 > 10 µM
